Results from patent US12503444B2, “Compound containing benzene ring and application thereof” (WUHAN LL SCIENCE AND TECHNOLOGY DEVELOPMENT CO., LTD., priority 2019, dated 2025).

molecular target: T1, hP2X4 (human purinergic P2X receptor subtype 4) (Homo sapiens, UniProt Q99571); experiment: FLIPR assay of intracellular calcium increase induced by activation of hP2X4 expressed in HEK293 cells (agonist BZ-ATP 2.5 μM); assay type: cell-based; conditions: HEK293 cells stably expressing hP2X4, FLIPR, class symbols, read-out: P2X4 IC50
T1 sequence (Q99571 1-404 isoform Q99571-2): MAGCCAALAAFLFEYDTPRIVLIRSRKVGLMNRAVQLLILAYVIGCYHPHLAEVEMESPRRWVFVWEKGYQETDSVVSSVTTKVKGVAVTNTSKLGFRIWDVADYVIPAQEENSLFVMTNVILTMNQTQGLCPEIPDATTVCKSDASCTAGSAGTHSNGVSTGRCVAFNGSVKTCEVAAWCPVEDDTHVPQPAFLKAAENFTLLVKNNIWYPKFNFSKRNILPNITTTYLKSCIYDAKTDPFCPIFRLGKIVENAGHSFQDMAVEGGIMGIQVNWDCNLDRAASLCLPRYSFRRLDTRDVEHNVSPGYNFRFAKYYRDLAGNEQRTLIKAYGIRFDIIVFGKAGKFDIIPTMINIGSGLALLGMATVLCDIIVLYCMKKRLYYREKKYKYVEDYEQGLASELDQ
Procedure: The antagonist property of the compounds disclosed herein was determined using the FLIPR (fluorescence imaging plate reader) method, wherein the compounds are inhibitors for the intracellular calcium increase induced by activation of hP2X4 (human purinergic P2X receptor subtype 4, accession No. NM_001256796.2) expressed in HEK293 cells (human renal epithelial cell line, ATCC).
HEK293 cells stably expressing hP2X4 were cultured in DMEM high glucose medium containing 10% FBS (fetal bovine serum, Biosera, FB-1058/500), 1% penicillin-streptomycin (Gibco, 15140-122) and 1 mg/mL G418 (CABIOCHE, 345810) in a cell incubator (37° C., […]). Cells at 400,000 cells/mL were seeded into a 384-well plate (10,000 cells/well) 18-24 h prior to the FLIPR experiment and then incubated overnight in a cell incubator. On the day of the experiment, the medium was discarded and the cells were washed in an FLIPR buffer (0.3 mL of probenecid (Thermo, P36400), 0.6 mL of 1 M HEPES (Invitrogen, 15630080) and 29.1 mL of HBSS (Invitrogen, 14065056) per 30 mL of the buffer). Each well was added with 20 μL of 0.5× Calcium 6 fluorescent dye (Molecular Devices, R8190) and then the cells were subjected to dye-loading incubation at 37° C. for 1.5 h. Each well was added with 10 μL of respective test compound (dissolved in DMSO at a concentration of 10 mM and serially diluted with buffer) or vehicle and the mixture was equilibrated for 30 min at room temperature. The cell plate was then placed in the FLIPR for baseline fluorescence measurements (excitation at 485 nm and emission at 525-535 nm). An agonist (BZ-ATP (Sigma, B6396) at a final concentration of 2.5 μM) or a vehicle (ultrapure water) was then added at 10 μL/well, fluorescence values were measured for 2 min at 1-second intervals, and finally the output fluorescence counts were analyzed.

Row | Molecule | IC50
1 | 2-(2-chlorophenyl)-N-(1-(2-hydroxyethyl)-4-sulfamoyl-2H-indazol-6-yl)acetamide [Compound 27-B] | 50 to 200 nM
2 | CC1(n2cc3c(S(N)(=O)=O)cc(NC(=O)Cc4ccccc4Cl)cc3n2)CC1 [Compound 22, 2-(2-chlorophenyl)-N-(2-(1-methylcyclopropyl)-4-sulfamoyl-2H-indazol-6-yl)acetamide] | 10 to 50 nM
3 | CC(C)C(F)(F)n1cc2c(S(N)(=O)=O)cc(NC(=O)Cc3ccccc3Cl)cc2n1 [Compound 23, 2-(2-chlorophenyl)-N-(2-(1,1-difluoro-2-methylpropyl)-4-sulfamoyl-2H-indazol-6-yl)acetamide] | 10 to 50 nM
4 | COCCn1cc2c(S(N)(=O)=O)cc(NC(=O)Cc3ccccc3Cl)cc2n1 [Compound 25, 2-(2-chlorophenyl)-N-(2-(2-methoxyethyl)-4-sulfamoyl-2H-indazol-6-yl)acetamide] | 10 to 50 nM
5 | COCCn1ncc2c(S(N)(=O)=O)cc(NC(=O)Cc3ccccc3Cl)cc21 [Compound 25A] | 10 to 50 nM
6 | CC(C)OCCn1ncc2c(S(N)(=O)=O)cc(NC(=O)Cc3ccccc3Cl)cc21 [Compound 26-B, 2-(2-chlorophenyl)-N-(1-(2-isopropoxyethyl)-4-sulfamoyl-1H-indazol-6-yl)acetamide] | 200 to 5000 nM
7 | NS(=O)(=O)c1cc(NC(=O)Cc2ccccc2Cl)cc2nn(CCO)cc12 [Compound 27-A, 2-(2-chlorophenyl)-N-(2-(2-hydroxyethyl)-4-sulfamoyl-2H-indazol-6-yl)acetamide] | 200 to 5000 nM
8 | NS(=O)(=O)c1cc(NC(=O)Cc2ccccc2Cl)cc2nn(CCOC3CC3)cc12 [Compound 28, 2-(2-chlorophenyl)-N-(2-(2-cyclopropyloxyethyl)-4-sulfamoyl-2H-indazol-6-yl)acetamide] | 10 to 50 nM
9 | CC(C)NCCn1cc2c(S(N)(=O)=O)cc(NC(=O)Cc3ccccc3Cl)cc2n1 [Compound 29, 2-(2-chlorophenyl)-N-(2-(2-(isopropylamino)ethyl)-4-sulfamoyl-2H-indazol-6-yl)acetamide] | 10 to 50 nM
10 | CS(=O)(=O)CCn1cc2c(S(N)(=O)=O)cc(NC(=O)Cc3ccccc3Cl)cc2n1 [Compound 30, 2-(2-chlorophenyl)-N-(2-(2-(methylsulfonyl)ethyl)-4-sulfamoyl-2H-indazol-6-yl)acetamide] | 10 to 50 nM
11 | NS(=O)(=O)c1cc(NC(=O)Cc2ccccc2Cl)cc2c1cnn2CC1CCCCC1 [Compound 32-B, 2-(2-chlorophenyl)-N-(1-(cyclohexylmethyl)-4-sulfamoyl-1H-indazol-6-yl)acetamide] | 10 to 50 nM
12 | NS(=O)(=O)c1cc(NC(=O)Cc2ccccc2Cl)cc2nn(Cc3ccc(O)cc3)cc12 [Compound 34, 2-(2-chlorophenyl)-N-(2-(4-hydroxybenzyl)-4-sulfamoyl-2H-indazol-6-yl)acetamide] | 10 to 50 nM
13 | COc1ccccc1Cn1ncc2c(S(N)(=O)=O)cc(NC(=O)Cc3ccccc3Cl)cc21 [Compound 37-B, 2-(2-chlorophenyl)-N-(1-(2-methoxybenzyl)-4-sulfamoyl-1H-indazol-6-yl)acetamide] | 10 to 50 nM
14 | CN(C)c1cccc(Cn2cc3c(S(N)(=O)=O)cc(NC(=O)Cc4ccccc4Cl)cc3n2)c1 [Compound 38, 2-(2-chlorophenyl)-N-(2-(3-(dimethylamino)benzyl)-4-sulfamoyl-2H-indazol-6-yl)acetamide] | 10 to 50 nM
15 | COc1cnccc1Cn1cc2c(S(N)(=O)=O)cc(NC(=O)Cc3ccccc3Cl)cc2n1 [Compound 39, 2-(2-chlorophenyl)-N-(2-((3-methoxypyridin-4-yl)methyl)-4-sulfamoyl-2H-indazol-6-yl)acetamide] | 10 to 50 nM

More lines, now with the values ahead:

Row | IC50 | Molecule
16 | ≤ 10 nM | CCn1cc2c(S(N)(=O)=O)cc(NC(=O)Cc3ccccc3Cl)cc2n1 [Compound 4-A, (4-sulfonamide-6-N-(2-chlorophenylacetyl)-2-ethyl)-indazole]
17 | 10 to 50 nM | CC(C)n1ncc2c(S(N)(=O)=O)cc(NC(=O)Cc3ccccc3Cl)cc21 [Compound 6-B, 2-(2-chlorophenyl)-N-(1-isopropyl-4-sulfamoyl-1H-indazol-6-yl)acetamide]
18 | ≤ 10 nM | CC(C)(C)n1cc2c(S(N)(=O)=O)cc(NC(=O)Cc3ccccc3Cl)cc2n1 [Compound 9, 2-(2-chlorophenyl)-N-(2-(tert-butyl)-4-sulfamoyl-2H-indazol-6-yl)acetamide]
19 | ≤ 10 nM | NS(=O)(=O)c1cc(NC(=O)Cc2ccccc2Cl)cc2nn(CCF)cc12 [Compound 11, 2-(2-chlorophenyl)-N-(2-(2-fluoroethyl)-4-sulfamoyl-2H-indazol-6-yl)acetamide]
20 | 10 to 50 nM | CC(C)(F)n1cc2c(S(N)(=O)=O)cc(NC(=O)Cc3ccccc3Cl)cc2n1 [Compound 13, 2-(2-chlorophenyl)-N-(2-(2-fluoropropan-2-yl)-4-sulfamoyl-2H-indazol-6-yl)acetamide]
21 | ≤ 10 nM | C=CCn1cc2c(S(N)(=O)=O)cc(NC(=O)Cc3ccccc3Cl)cc2n1 [Compound 14-A]
22 | 10 to 50 nM | NS(=O)(=O)c1cc(NC(=O)Cc2ccccc2Cl)cc2c1cnn2CC1CC1 [Compound 15-B, 2-(2-chlorophenyl)-N-(1-(cyclopropylmethyl)-4-sulfamoyl-1H-indazol-6-yl)acetamide]
23 | 10 to 50 nM | NS(=O)(=O)c1cc(NC(=O)Cc2ccccc2Cl)cc2c1cnn2C(=O)C1CC1 [Compound 16-A, 2-(2-chlorophenyl)-N-(1-(cyclopropylcarbonyl)-4-sulfamoyl-1H-indazol-6-yl)acetamide]
24 | ≤ 10 nM | NS(=O)(=O)c1cc(NC(=O)Cc2ccccc2Cl)cc2nn(C(=O)C3CC3)cc12 [Compound 16-B, 2-(2-chlorophenyl)-N-(2-(cyclopropylcarbonyl)-4-sulfamoyl-2H-indazol-6-yl)acetamide]
25 | 10 to 50 nM | CC(C)C1(n2cc3c(S(N)(=O)=O)cc(NC(=O)Cc4ccccc4Cl)cc3n2)CC1 [Compound 17, 2-(2-chlorophenyl)-N-(2-(1-isopropylcyclopropyl)-4-sulfamoyl-2H-indazol-6-yl)acetamide]
26 | 10 to 50 nM | CCC1(n2cc3c(S(N)(=O)=O)cc(NC(=O)Cc4ccccc4Cl)cc3n2)CC1 [Compound 18, 2-(2-chlorophenyl)-N-(2-(1-ethylcyclopropyl)-4-sulfamoyl-2H-indazol-6-yl)acetamide]
27 | 10 to 50 nM | NS(=O)(=O)c1cc(NC(=O)Cc2ccccc2Cl)cc2nn(C(F)C3CC3)cc12 (stereo not shown) [Compound 19, 2-(2-chlorophenyl)-N-(2-(cyclopropylfluoromethyl)-4-sulfamoyl-2H-indazol-6-yl)acetamide]
28 | 10 to 50 nM | NS(=O)(=O)c1cc(NC(=O)Cc2ccccc2Cl)cc2nn(C(F)(F)C3CC3)cc12 [Compound 20, 2-(2-chlorophenyl)-N-(2-(cyclopropyldifluoromethyl)-4-sulfamoyl-2H-indazol-6-yl)acetamide]
29 | 10 to 50 nM | CC(C)(C1CC1)n1cc2c(S(N)(=O)=O)cc(NC(=O)Cc3ccccc3Cl)cc2n1 [Compound 21, 2-(2-chlorophenyl)-N-(2-(2-cyclopropylpropan-2-yl)-4-sulfamoyl-2H-indazol-6-yl)acetamide]
30 | ≤ 10 nM | NS(=O)(=O)c1cc(NC(=O)Cc2ccccc2Cl)cc2c1cnn2CC1CCCC1 [Compound 31-B, 2-(2-chlorophenyl)-N-(1-(cyclopentylmethyl)-4-sulfamoyl-1H-indazol-6-yl)acetamide]
31 | ≤ 10 nM | NS(=O)(=O)c1cc(NC(=O)Cc2ccccc2Cl)cc2nn(CC3CCCCC3)cc12 [Compound 32-A, 2-(2-chlorophenyl)-N-(2-(cyclohexylmethyl)-4-sulfamoyl-2H-indazol-6-yl)acetamide]
32 | ≤ 10 nM | NS(=O)(=O)c1cc(NC(=O)Cc2ccccc2Cl)cc2nn(CCC3CC3)cc12 [Compound 33, 2-(2-chlorophenyl)-N-(2-(2-cyclopropylethyl)-4-sulfamoyl-2H-indazol-6-yl)acetamide]

same assay, conditions: HEK293 cells stably expressing hP2X4, FLIPR, numeric values, read-out: P2X4 IC50

Row | IC50 | Molecule
33 | 1.16 nM | CC(C)n1cc2c(S(N)(=O)=O)cc(NC(=O)Cc3ccccc3Cl)cc2n1 [Compound 6-A, 2-(2-chlorophenyl)-N-(2-isopropyl-4-sulfamoyl-2H-indazol-6-yl)acetamide]
34 | 119 nM | NS(=O)(=O)c1cc(NC(=O)Cc2ccccc2Cl)cc2nn(CC3CC3)cc12 [Compound 15-A, 2-(2-chlorophenyl)-N-(2-(cyclopropylmethyl)-4-sulfonamido-2H-indazol-6-yl)acetamide]
